Laboratory results reported in US10759783B2, “Biaryl inhibitors of Bruton'S tyrosine kinase” (BIOGEN MA INC., priority 2013, dated 2020).
pIC50: −log10 of the molar value.

How the values were obtained:
BTK enzyme = biological target: T1, BTK enzyme (Homo sapiens, UniProt Q06187); test: In vitro BTK kinase assay: BTK-POLYGAT-LS assay; type: biochemical; details: ATP 10 μM, read-out: IC50 (10uMATP)
T1 construct: purchased Upstate 14-552
How it was run: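 Human BTK activity was measured with final 10 μM ATP and 100 nM polyGAT substrate in pH 7.5 Tris buffer with 10 mM MgCl2, DTT, Triton X-100 and casein.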

[1] = biological target: BTK (phospho-BTK) in human whole blood (Homo sapiens, UniProt Q06187); test: In vitro PD assay in human whole blood (pBTK assay)
Chain of BTK (phospho-BTK) in human whole blood (Q06187 whole entry): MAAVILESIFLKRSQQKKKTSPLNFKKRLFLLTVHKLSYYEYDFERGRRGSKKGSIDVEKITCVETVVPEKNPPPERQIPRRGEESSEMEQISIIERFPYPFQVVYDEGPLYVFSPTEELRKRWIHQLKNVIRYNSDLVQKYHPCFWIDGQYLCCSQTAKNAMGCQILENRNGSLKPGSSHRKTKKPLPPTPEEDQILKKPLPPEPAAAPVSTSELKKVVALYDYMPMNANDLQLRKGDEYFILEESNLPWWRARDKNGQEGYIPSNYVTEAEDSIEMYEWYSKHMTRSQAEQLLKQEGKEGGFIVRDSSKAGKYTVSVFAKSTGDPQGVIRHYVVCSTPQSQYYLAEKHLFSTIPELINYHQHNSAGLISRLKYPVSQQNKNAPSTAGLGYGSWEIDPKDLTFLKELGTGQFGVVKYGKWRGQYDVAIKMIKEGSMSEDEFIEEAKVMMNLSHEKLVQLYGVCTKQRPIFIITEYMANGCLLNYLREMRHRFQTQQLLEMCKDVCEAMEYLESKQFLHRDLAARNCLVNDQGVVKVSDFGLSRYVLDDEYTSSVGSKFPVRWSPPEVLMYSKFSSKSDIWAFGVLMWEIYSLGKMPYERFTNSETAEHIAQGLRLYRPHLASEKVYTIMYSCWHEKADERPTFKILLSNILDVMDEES

T1 sequence (Q06187 whole entry): as above

Row | Compound | pIC50 (BTK enzyme) | pIC50 [1]
1 | Cc1cc(-c2ccnc(Nc3cnn([C@H]4CCNC4)c3)n2)ccc1CNC(=O)c1cnc(C(C)(C)C)s1 [Example I-124, (S)-2-(tert-butyl)-N-(2-methyl-4-(2-((1-(pyrrolidin-3-yl)-1H-pyrazol-4-yl)amino)pyrimidin-4-yl)benzyl)thiazole-5-carboxamide] | > 8.00 | > 6.30
2 | CC(C)OC1CN(C(=O)NC2CCCCc3cc(-c4ccnc(Nc5cnn(C6CCOCC6)c5)n4)ccc32)C1 (stereo not drawn) [Example I-172, 3-isopropoxy-N-(2-(2-((1-(tetrahydro-2H-pyran-4-yl)-1H-pyrazol-4-yl)amino)pyrimidin-4-yl)-6,7,8,9-tetrahydro-5H-benzo[7]annulen-5-yl)azetidine-1-carboxamide] | > 8.00 | > 6.30
3 | Cc1cc(-c2ccnc(Nc3cnn(C4CCOCC4)c3)n2)ccc1CNC(=O)N1CC(OC(C)C)C1 [Example I-221, 3-isopropoxy-N-(2-methyl-4-(2-((1-(tetrahydro-2H-pyran-4-yl)-1H-pyrazol-4-yl)amino)pyrimidin-4-yl)benzyl)azetidine-1-carboxamide] | > 8.00 | > 6.30
